Measured values reported in US7582645B2, “Pyrimidine derivatives for treatment of hyperproliferative disorders” (Bayer Pharmaceuticals Corporation, priority 2003, dated 2009).
Where a name gives a salt, the structure may show the parent alone.

test system: HCT116 cells; experiment: HCT116 cytotoxic activity assay (Alamar Blue, 72 h); format: cell-based; settings: Homo sapiens, HCT-116, 72 h compound exposure, greater than 500 nM but less than or equal to 2 μM
Experimental: Representative compounds of this invention were tested for cytotoxicity using the above-described assay procedure with the following results: […]

Question: How did the IC50 turn out when `COc1ccc(-c2cc(Nc3ccc(Oc4ccnc(C#N)c4)cc3)nc(N)n2)cc1N` [Example 172, 4-(4-{[2-amino-6-(3-amino-4-methoxyphenyl)pyrimidin-4-yl]amino}phenoxy)pyridine-2-carbonitrile] was run?
Answer: 500 to 2000 nM

Question: With `Nc1nc(Nc2ccc(Oc3ccnc(C(F)(F)F)c3)cc2)cc(-c2ccc(O)cc2C(F)(F)F)n1` [Example 176, 4-{2-amino-6-[(4-{[2-(trifluoromethyl)pyridin-4-yl]oxy}phenyl)amino]pyrimidin-4-yl}-3-(trifluoromethyl)phenol] as the molecule, how does the IC50 read?
Answer: 500 to 2000 nM

Question: `COc1ccc(-c2cc(Nc3ccc(Oc4ccnc(C(F)(F)F)c4)cc3)nc(N)n2)cc1OC` [Example 189, 6-(3,4-dimethoxyphenyl)-N4*-(4-{[2-(trifluoromethyl)pyridin-4-yl]oxy}phenyl)pyrimidine-2,4-diamine] was tested. Which IC50 did it give?
Answer: 500 to 2000 nM

Question: How did the IC50 turn out when `Nc1nc(Nc2ccc(Oc3ccnc(C(F)(F)F)c3)cc2)cc(-c2ccccc2N)n1` [Example 194, 6-(2-aminophenyl)-N4*-(4-{[2-(trifluoromethyl)pyridin-4-yl]oxy}phenyl)pyrimidine-2,4-diamine] was run?
Answer: 500 to 2000 nM

same assay, conditions: Homo sapiens, HCT-116, 72 h compound exposure, greater than 2 μM

Question: Which IC50 does the source give for `COc1cc(-c2cc(Nc3ccc(Oc4ccnc(C#N)c4)cc3)nc(N)n2)ccc1NC(=O)OC(C)(C)C` [Example 178, tert-butyl {4-[2-amino-6-({4-[(2-cyanopyridin-4-yl)oxy]phenyl}amino)pyrimidin-4-yl]-2-methoxyphenyl}carbamate] here?
Answer: > 2000 nM

same assay, conditions: Homo sapiens, HCT-116, 72 h compound exposure, less than or equal to 500 nM

Question: `Nc1nc(Nc2ccc(Oc3ccnc(C(F)(F)F)c3)cc2)cc(-c2ccccc2C(F)(F)F)n1` [Example 155, 6-[2-(trifluoromethyl)phenyl]-N4*-(4-{[2-(trifluoromethyl)pyridin-4-yl]oxy}phenyl)pyrimidine-2,4-diamine] was tested. Which IC50 did it give?
Answer: ≤ 500 nM

Question: Which IC50 does the source give for `CCc1ccccc1-c1cc(Nc2ccc(Oc3ccnc(C(F)(F)F)c3)cc2)nc(N)n1` [Example 156, 6-(2-ethylphenyl)-N4*-(4-{[2-(trifluoromethyl)pyridin-4-yl]oxy}phenyl) pyrimidine-2,4-diamine] here?
Answer: ≤ 500 nM

Question: How did the IC50 turn out when `CCOc1ccccc1-c1cc(Nc2ccc(Oc3ccnc(C(F)(F)F)c3)cc2)nc(N)n1` [Example 157, 6-(2-ethoxyphenyl)-N4*-(4-{[2-(trifluoromethyl)pyridin-4-yl]oxy}phenyl) pyrimidine-2,4-diamine] was run?
Answer: ≤ 500 nM

Question: `Cc1ccc(F)c(-c2cc(Nc3ccc(Oc4ccnc(C(F)(F)F)c4)cc3)nc(N)n2)c1` [Example 158, 6-(2-fluoro-5-methylphenyl)-N4*-(4-{[2-(trifluoromethyl)pyridin-4-yl]oxy}phenyl)pyrimidine-2,4-diamine] was tested. Which IC50 did it give?
Answer: ≤ 500 nM

Question: `Nc1nc(Nc2ccc(Oc3ccnc(C(F)(F)F)c3)cc2)cc(-c2cccc(F)c2F)n1` [Example 159, 6-(2,3-difluorophenyl)-N4*-(4-{[2-(trifluoromethyl)pyridin-4-yl]oxy}phenyl)pyrimidine-2,4-diamine] was tested. Which IC50 did it give?
Answer: ≤ 500 nM

Question: How did the IC50 turn out when `Nc1nc(Nc2ccc(Oc3ccnc(C(F)(F)F)c3)cc2)cc(-c2cc(F)ccc2F)n1` [Example 160, 6-(2,5-difluorophenyl)-N4*-(4-{[2-(trifluoromethyl)pyridin-4-yl]oxy}phenyl)pyrimidine-2,4-diamine] was run?
Answer: ≤ 500 nM

Question: With `Nc1nc(Nc2ccc(Oc3ccnc(C(F)(F)F)c3)cc2)cc(-c2ccccc2OC(F)(F)F)n1` [Example 161, 6-[2-(trifluoromethoxy)phenyl]-N4*-(4-{[2-(trifluoromethyl)pyridin-4-yl]oxy}phenyl)pyrimidine-2,4-diamine] as the molecule, how does the IC50 read?
Answer: ≤ 500 nM

Question: How did the IC50 turn out when `CC(C)c1ccccc1-c1cc(Nc2ccc(Oc3ccnc(C(F)(F)F)c3)cc2)nc(N)n1` [Example 162, 6-(2-isopropylphenyl)-N4*- (4-{[2-(trifluoromethyl)pyridin-4-yl]oxy}phenyl) pyrimidine-2,4-diamine] was run?
Answer: ≤ 500 nM

Question: How did the IC50 turn out when `CCc1ccccc1-c1cc(Nc2ccc(Oc3ccnc(CN)c3)cc2)nc(N)n1` [Example 163, N4*-(4-{[2-(aminomethyl)pyridin-4-yl]oxy}phenyl)-6-(2-ethylphenyl)pyrimidine-2,4-diamine] was run?
Answer: ≤ 500 nM

Question: Which IC50 does the source give for `Nc1ccc(-c2cc(Nc3ccc(Oc4ccnc(C(F)(F)F)c4)cc3)nc(N)n2)cc1` [Example 164, 6-(4-aminophenyl)-N4*-(4-{[2-(trifluoromethyl)pyridin-4-yl]oxy}phenyl) pyrimidine-2,4-diamine hydrochloride] here?
Answer: ≤ 500 nM

Question: `COc1cc(-c2cc(Nc3ccc(Oc4ccnc(C(F)(F)F)c4)cc3)nc(N)n2)ccc1O` [Example 166, 4-{2-amino-6-[(4-{[2-(trifluoromethyl)pyridin-4-yl]oxy}phenyl)amino]pyrimidin-4-yl}-2-methoxyphenol] was tested. Which IC50 did it give?
Answer: ≤ 500 nM

Question: Which IC50 does the source give for `Nc1nc(Nc2ccc(Oc3ccnc(C(F)(F)F)c3)cc2)cc(-c2cccc(O)c2)n1` [Example 167, 3-{2-amino-6-[(4-{[2-(trifluoromethyl)pyridin-4-yl]oxy}phenyl)amino]pyrimidin-4-yl}phenol] here?
Answer: ≤ 500 nM

Question: For `COc1ccc(-c2cc(Nc3ccc(Oc4ccnc(C(F)(F)F)c4)cc3)nc(N)n2)cc1N` [Example 168, 6-(3-amino-4-methoxyphenyl)-N4*-(4-{[2-(trifluoromethyl)pyridin-4-yl]oxy}phenyl) pyrimidine-2,4-diamine], which IC50 is on record?
Answer: ≤ 500 nM

Question: For `Nc1cccc(-c2cc(Nc3ccc(Oc4ccnc(C(F)(F)F)c4)cc3)nc(N)n2)c1` [Example 170, 6-(3-aminophenyl)-N4*-(4-{[2-(trifluoromethyl)pyridin-4-yl]oxy}phenyl) pyrimidine-2,4-diamine hydrochloride], which IC50 is on record?
Answer: ≤ 500 nM

Question: For `COc1cc(-c2cc(Nc3ccc(Oc4ccnc(C#N)c4)cc3)nc(N)n2)ccc1O` [Example 171, 4-(4-{[2-amino-6-(4-hydroxy-3-methoxyphenyl)pyrimidin-4-yl]amino}phenoxy)pyridine-2-carbonitrile], which IC50 is on record?
Answer: ≤ 500 nM

Question: How did the IC50 turn out when `COc1cc(-c2cc(Nc3ccc(Oc4ccnc(C(N)=O)c4)cc3)nc(N)n2)ccc1N` [Example 173, 4-(4-{[2-amino-6-(4-amino-3-methoxyphenyl)pyrimidin-4-yl]amino}phenoxy)pyridine-2-carboxamide] was run?
Answer: ≤ 500 nM

Question: With `Cc1cc(O)ccc1-c1cc(Nc2ccc(Oc3ccnc(C(F)(F)F)c3)cc2)nc(N)n1` [Example 174, 4-{2-amino-6-[(4-{[2-(trifluoromethyl)pyridin-4-yl]oxy}phenyl)amino]pyrimidin-4-yl}-3-methylphenol] as the molecule, how does the IC50 read?
Answer: ≤ 500 nM

Question: For `Nc1nc(Nc2ccc(Oc3ccnc(C(F)(F)F)c3)cc2)cc(-c2ccccc2CO)n1` [Example 175, (2-{2-amino-6-[(4-{[2-(trifluoromethyl)pyridin-4-yl]oxy}phenyl)amino]pyrimidin-4-yl}phenyl) methanol], which IC50 is on record?
Answer: ≤ 500 nM

Question: For `Nc1nc(Nc2ccc(Oc3ccnc(C(F)(F)F)c3)cc2)cc(-c2ccc(N)c(F)c2)n1` [Example 177, 6-(4-amino-3-fluorophenyl)-N4*-(4-{[2-(trifluoromethyl)pyridin-4-yl]oxy}phenyl)pyrimidine-2,4-diamine], which IC50 is on record?
Answer: ≤ 500 nM

Question: `Cc1cc(-c2cc(Nc3ccc(Oc4ccnc(C(F)(F)F)c4)cc3)nc(N)n2)ccc1N` [Example 180, 6-(4-amino-3-methylphenyl)-N4*-(4-{[2-(trifluoromethyl)pyridin-4-yl]oxy}phenyl)pyrimidine-2,4-diamine] was tested. Which IC50 did it give?
Answer: ≤ 500 nM

Question: How did the IC50 turn out when `Nc1ccc(-c2cc(Nc3ccc(Oc4ccnc(C(F)(F)F)c4)cc3)nc(N)n2)cn1` [Example 181, 6-(6-aminopyridin-3-yl)-N4*-(4-{[2-(trifluoromethyl)pyridin-4-yl]oxy}phenyl)pyrimidine-2,4-diamine] was run?
Answer: ≤ 500 nM

Question: With `N#Cc1cc(Oc2ccc(Nc3cc(-c4ccc(N)nc4)nc(N)n3)cc2)ccn1` [Example 183, 4-(4-{[2-amino-6-(6-aminopyridin-3-yl)pyrimidin-4-yl]amino}phenoxy)pyridine-2-carbonitrile] as the molecule, how does the IC50 read?
Answer: ≤ 500 nM

Question: Which IC50 does the source give for `COc1cc(-c2cc(Nc3ccc(Oc4ccnc(C(F)(F)F)c4)cc3)nc(N)n2)ccc1OS(N)(=O)=O` [Example 185, 4-{2-amino-6-[(4-{[2-(trifluoromethyl)pyridin-4-yl]oxy}phenyl)amino]pyrimidin-4-yl}-2-methoxyphenyl sulfamate] here?
Answer: ≤ 500 nM

Question: Which IC50 does the source give for `Nc1nc(Nc2ccc(Oc3ccnc(C(F)(F)F)c3)cc2)cc(-c2ccc(-c3ccccc3)cc2)n1` [Example 187, 6-biphenyl-4-yl-N4*-(4-{[2-(trifluoromethyl)pyridin-4-yl]oxy}phenyl) pyrimidine-2,4-diamine] here?
Answer: ≤ 500 nM

Question: How did the IC50 turn out when `Nc1nc(Nc2ccc(Oc3ccnc(C(F)(F)F)c3)cc2)cc(-c2cccs2)n1` [Example 188, 6-(2-thienyl)-N4*-(4-{[2-(trifluoromethyl)pyridin-4-yl]oxy}phenyl)pyrimidine-2,4-diamine] was run?
Answer: ≤ 500 nM

Question: With `COc1ccc(-c2cc(Nc3ccc(Oc4ccnc(C(F)(F)F)c4)cc3)nc(N)n2)cc1` [Example 190, 6-(4-methoxyphenyl)-N4*-(4-{[2-(trifluoromethyl)pyridin-4-yl]oxy}phenyl)pyrimidine-2,4-diamine] as the molecule, how does the IC50 read?
Answer: ≤ 500 nM

Question: For `COc1ccc(-c2cc(Nc3ccc(Oc4ccnc(C(F)(F)F)c4)cc3)nc(N)n2)cn1` [Example 191, 6-(6-methoxypyridin-3-yl)-N4*-(4-{[2-(trifluoromethyl)pyridin-4-yl]oxy}phenyl)pyrimidine-2,4-diamine], which IC50 is on record?
Answer: ≤ 500 nM

Question: How did the IC50 turn out when `Nc1nc(Nc2ccc(Oc3ccnc(C(F)(F)F)c3)cc2)cc(-c2cccc(F)c2)n1` [Example 192, 6-(3-fluorophenyl)-N4*-(4-{[2-(trifluoromethyl)pyridin-4-yl]oxy}phenyl)pyrimidine-2,4-diamine] was run?
Answer: ≤ 500 nM

Question: For `Nc1nc(Nc2ccc(Oc3ccnc(C(F)(F)F)c3)cc2)cc(-c2ccccc2F)n1` [Example 193, 6-(2-fluorophenyl)-N4*-(4-{[2-(trifluoromethyl)pyridin-4-yl]oxy}phenyl)pyrimidine-2,4-diamine], which IC50 is on record?
Answer: ≤ 500 nM

Question: How did the IC50 turn out when `Nc1nc(Nc2ccc(Oc3ccnc(C(F)(F)F)c3)cc2)cc(-c2ccoc2)n1` [Example 195, 6-(3-furyl)-N4*-(4-{[2-(trifluoromethyl)pyridin-4-yl]oxy}phenyl)pyrimidine-2,4-diamine] was run?
Answer: ≤ 500 nM

Question: With `Nc1nc(Nc2ccc(Oc3ccnc(C(F)(F)F)c3)cc2)cc(-c2ccc(F)cc2)n1` [Example 196, 6-(4-fluorophenyl)-N4*-(4-{[2-(trifluoromethyl)pyridin-4-yl]oxy}phenyl)pyrimidine-2,4-diamine] as the molecule, how does the IC50 read?
Answer: ≤ 500 nM
